Like-named read-outs stand apart in the source and are kept apart here.
Experiments:
[1] = Cytotoxicity in Vero C1008 cells; details: African green monkey
CVB3 = test: CPE assay, CVB3 in Vero C1008 cells; type: cell-based, coxsackievirus B3 (CVB3); details: Enterovirus B
EV-A71 Tainan/4643/98 = test: CPE assay, EV-A71 Tainan in RD cells; type: cell-based; details: Enterovirus A
CVB3 2C protein = molecular target: T1, CVB3 2C protein (Coxsackievirus B3, UniProt P03313); test: Thermal shift assay (differential scanning fluorimetry); type: binding
T1 construct: CVB3 Nancy 2C (amino acids 37 to 329) protein; His tag with TEV site (inferred from the pET28a(+)-TEV vector and Ni-NTA purification); made in house; host or cells: E. coli Rosetta 2(DE3)

sodium channels = test: Sodium flux assay in DRG neurons; details: rat DRG neurons, veratridine
Experimental: In this assay, rat dorsal root ganglia (DRG) neurons were incubated with various concentrations of testing compounds. Sodium channels were then activated by the sodium channel agonist veratridine. The resulting sodium flux was measured indirectly by quantifying the sodium channel triggered calcium flux, which was measured by a calcium-specific fluorescence dye (FIG. 4).
Dorsal root ganglion neurons were prepared as previously described^27 and were loaded for 30 minutes at 3TC with 3 μM Fura-2AM (Cat #F1221, Thermo Fisher, stock solution prepared at 1 mM in DMSO, 0.02% pluronic acid, Cat #P-3000MP, Life technologies) to follow changes in intracellular calcium ([Ca^2+]c) in a standard bath solution containing 139 mM NaCl, 3 mM KCl, 0.8 mM MgCl2, 1.8 mM CaCl2, 10 mM Na HEPES, pH 7.4, 5 mM glucose exactly as previously described^28 Fluorescence imaging was performed with an inverted microscope, NikonEclipseTi-U (Nikon Instruments Inc., Melville, N.Y.), using objective Nikon Fluor 4X and a Photometrics cooled CCD camera Cool SNAP ES^2 (Roper Scientific, Tucson, Ariz.) controlled by Nis Elements software (version 4.20, Nikon Instruments). […] Fluorescence was recorded through a 505-nm dichroic mirror at 535±25 nm. […] The changes in [Ca^2+]c were monitored by following a ratio of F340/F380, calculated after subtracting the background from both channels. […]

[2] = test system: EV-D68 viral capsid protein VP1; test: VP1 expression by immunofluorescence imaging and western blot; type: cell-based, Enterovirus D68 (EV-D68); details: for VP1 protein expression: 1 μM, US/KY/14-18953 MOI=1, 9 hpi, immunofluorescence imaging and western blot
Experimental: The EV-D68 2C protein is a highly conserved viral protein that plays multiple functions in genome replication. It has been implicated in RNA replication, membrane rearrangements, encapsidation, and uncoating (see, Van der Linden, L.; et al., Viruses 2015, 7, 4529-4562). Inhibition of viral 2C protein is expected to inhibit viral RNA and protein synthesis.
Total proteins were extracted at 9 hpi using RAPI lysis buffer [50 mM Tris (pH 8.0), 1% NP-40, 0.1% SDS, 150 mM NaCl, 0.5% Sodium deoxycholate, 5 mM EDTA, 10 mM NaF, 10 mM NaPPi, […] 1 mM PMSF]. Equal amount of extracted total proteins were separated by electrophoresis and transferred to a polyvinylidene difluoride (PVDF) membrane. Viral protein VP1 or host GAPDH was recognized by rabbit anti-VP1 (GeneTex: GTX132313; 1:3,000 dilution) or mouse anti-GAPDH antibody (EMD Millipore: MAB374; 1:3,000 dilution), respectively, followed by detection using Horse radish peroxidase (HRP)-conjugated secondary antibody (ThermoFisher Scientific: 32430 or 656120; 1:3,000 dilutions) and Supersignal West Femto substrate (ThermoFisher Scientific).
At 9 hpi, infected cells were fixed with 4% formaldehyde for 10 min followed by permeabilization with 0.2% Triton X-100 for another 10 min. After blocking with 10% bovine serum, cells were stained with rabbit anti-VP1 antibody (GeneTex: GTX132313) and followed by staining with anti-rabbit secondary antibody conjugated to Alexa-488 (ThermoFisher Scientific). Nucleus were stained with 300 nM DAPI (ThermoFisher Scientific) after secondary antibodies incubation. Fluorescent images were acquired using a Leica SP5-II spectral Confocal Microscope (Leica).

[3] = test system: influenza A virus A/California/07/2009 (H1N1); test: Plaque assay, influenza A virus; type: cell-based; details: 10 μM
Experimental: (§1) Plaque assay was performed using the condition described previously (see, Wang, Y.; et al., J. Med. Chem. 2018, 61, 1074-1085). […] Oseltamivir carboxylate was included as a positive control and was tested at 200 nM.

[4] = test system: influenza B virus B/Brisbane/60/2008 (Victoria); test: Plaque assay, influenza B virus; type: cell-based; details: 10 μM
Experimental: as §1

[5] = test system: EV-D68 US/KY/14-18953 virus; test: CPE assay, EV-D68 US/KY/14-18953 in RD cells; type: cell-based, Enterovirus D68 (EV-D68)
HeLa = test: Cytotoxicity in HeLa cells
Experimental: (§2) The cytotoxicity of each compound was determined using the neutral red cell viability assay. The assay was performed under similar conditions (incubation temperature, time, and media) as the CPE, but excluded viral infection. Data acquisition and analysis (CC50) was performed similarly to the antiviral CPE assay, and all values are from triplicate experiments.

A549 = test: Cytotoxicity in A549 cells
Experimental: as §2

SH-SY5Y cells = test: Cytotoxicity in SH-SY5Y cells
Experimental: as §2

A172 cells = test: Cytotoxicity in A172 cells
Experimental: as §2

EV-A71 US/AK/16-19516 = test: CPE assay, EV-A71 US/AK in RD cells; type: cell-based; details: Enterovirus A, EVA71
EV-D68 US/MO/14-18947 = test: CPE assay, EV-D68 US/MO/14-18947 in RD cells; details: Enterovirus D, EVD68, RD, EV-D68 US/MO/14-18947, RD cells
[6] = Enterovirus D, EVD68, RD, against five different strains of EV-D68 viruses (summary), read-out: EC50
[7] = EV-D68 US/KY/14-18953, RD cells, CPE assay, read-out: EC50
[8] = EV-D68 US/KY/14-18953, RD cells, CPE assay
[9] = CVB3, Vero C1008 cells, read-out: EC50
[10] = EVA71, EV-A71 Tainan, RD cells, read-out: EC50

T1 sequence (P03313 1137-1429): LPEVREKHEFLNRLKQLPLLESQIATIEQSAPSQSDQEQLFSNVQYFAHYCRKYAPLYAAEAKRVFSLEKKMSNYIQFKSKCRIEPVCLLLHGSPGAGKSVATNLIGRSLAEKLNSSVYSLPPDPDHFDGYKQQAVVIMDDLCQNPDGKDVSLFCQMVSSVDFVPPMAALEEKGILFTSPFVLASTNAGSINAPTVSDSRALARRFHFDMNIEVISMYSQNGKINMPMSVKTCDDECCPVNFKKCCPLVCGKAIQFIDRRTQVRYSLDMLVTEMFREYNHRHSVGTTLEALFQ

Structure (SMILES): CNCCC(Oc1ccc(C(F)(F)F)cc1)c1ccccc1 (centres unmarked)
- CC50 at 3 days [1]: 11 µM

Structure (SMILES): COc1ccc(CC(C)NCC(O)c2ccc(O)c(NC=O)c2)cc1 (centres unmarked)
- CC50 at 3 days [1]: > 300 µM
- EC50 (CVB3; CVB3, Vero C1008): 9.9 µM
- EC50 (EV-A71 Tainan/4643/98; EVA71, RD): > 100 µM

Structure (SMILES): CNCCNC(=O)c1cc(-c2ccc(F)cc2)nc2ccccc12 [Compound 6aw, 2-(4 fluorophenyl)-N-[2-(methylamino)ethyl]quinoline-4-carboxamide]
- thermal stability of CVB3 2C (CVB3 2C protein; three concentrations (10, 30 or 100 μM)): increased the thermal stability of CVB3 2C in a concentration dependent manner

Structure (SMILES): CN(C)CCNC(=O)c1cc(-c2ccccc2)nc2ccccc12 [Compound 10a, N-[2-(dimethylamino)ethyl]-2-phenylquinoline-4-carboxamide]
- inhibition of sodium current conductance (sodium channels; 2 μM to 50 μM): minimal to no effect
- VP1 protein expression ([2]; RD cells): completely blocked
- inhibition in plaque assay [3]: no inhibition
- inhibition in plaque assay [4]: no inhibition
- EC50 ([5]; Enterovirus D, EVD68, RD, Table 6, EV-D68 US/KY/14-18953, RD cells): 0.4 ± 0.2 µM
- EC50 [5, 6]: < 1 µM

Structure (SMILES): CN(C)CCNC(=O)c1cc(-c2cccs2)nc2ccccc12 [Compound 12a, N-[2-(dimethylamino)ethyl]-2-(thiophen-2-yl)quinoline-4-carboxamide]
- VP1 protein expression ([2]; RD cells): completely blocked
- inhibition in plaque assay [3]: no inhibition
- inhibition in plaque assay [4]: no inhibition
- EC50 ([5]; EV-D68 US/KY/14-18953, RD cells, CPE assay, listed as 6bf): 0.04 µM
- EC50 ([5]; Enterovirus D, EVD68, RD, against five different strains of EV-D68 viruses (summary)): < 1 µM

Structure (SMILES): O=C(NCCN1CCCC1)c1cc(-c2cccs2)nc2ccccc12 [Compound 12c, N-[2-(pyrrolidin-1-yl)ethyl]-2-(thiophen-2-yl)quinoline-4-carboxamide]
- VP1 protein expression ([2]; RD cells): completely blocked
- inhibition in plaque assay [3]: no inhibition
- inhibition in plaque assay [4]: no inhibition
- EC50 [5, 6]: < 1 µM

Structure (SMILES): CCCCOc1cc(C(=O)NCCN(CC)CC)c2ccccc2n1 [dibucaine, reference compound]
- inhibition of sodium current conductance (sodium channels; 20 μM and 50 μM): potently inhibited
- VP1 protein expression ([2]; RD cells): no effect
- fluorescent signal of VP1 (immunofluorescence) ([2]; 3 μM, 9 hpi, compared to DMSO control): significantly reduced
- VP1 expression (western blot) ([2]; 3 μM, RD cells, 9 hpi): nearly completely inhibited
- inhibition in plaque assay [3]: no inhibition
- inhibition in plaque assay [4]: no inhibition

Structure (SMILES): CCCCOc1cc(C(=O)NCCN(CC)CC)c2ccccc2n1 [drawing 127]
- CC50 (HeLa): 36 µM
- CC50 (A549): 37.5 µM

Structure (SMILES): CN(C)CCNC(=O)c1cc(-c2ccccc2)nc2ccccc12 [drawing 128]
- CC50 (HeLa): 68.7 µM
- EC50 [5, 7]: 0.4 µM
- CC50 (A549): 121 µM

Structure (SMILES): CN(C)CCNC(=O)c1cc(-c2cccs2)nc2ccccc12 [drawing 129]
- CC50 (HeLa): 51.2 µM
- EC50 [5, 8]: 0.04 µM
- CC50 (A549): 98.8 µM

Structure (SMILES): CCCCOc1cc(C(=O)NCCN(CC)CC)c2ccccc2n1 [drawing 131]
- CC50 (SH-SY5Y cells): > 30 µM
- CC50 (A172 cells): > 30 µM

Structure (SMILES): CN(C)CCNC(=O)c1cc(-c2ccccc2)nc2ccccc12 [drawing 132]
- CC50 (SH-SY5Y cells): > 300 µM
- CC50 (A172 cells): 88.4 µM

Structure (SMILES): CN(C)CCNC(=O)c1cc(-c2cccs2)nc2ccccc12 [drawing 133]
- CC50 (SH-SY5Y cells): 136 µM
- CC50 (A172 cells): 73.8 µM

Structure (SMILES): O=C(NCCN1CCCC1)c1cc(-c2cccs2)nc2ccccc12 [drawing 134]
- CC50 (SH-SY5Y cells): 93.3 µM
- CC50 (A172 cells): 65.4 µM

Structure (SMILES): CNCCNC(=O)c1cc(-c2ccccc2)nc2ccccc12 [drawing 182]
- EC50 (CVB3; [9]): 1.1 µM
- EC50 (EV-A71 US/AK/16-19516): > 10 µM
- EC50 (EV-A71 Tainan/4643/98; [10]): 7.8 µM

Structure (SMILES): CC(CN(C)C)NC(=O)c1cc(-c2ccccc2)nc2ccccc12 (centres unmarked) [drawing 183]
- EC50 (CVB3; [9]): 2 µM
- EC50 (EV-A71 US/AK/16-19516): 11.7 µM
- EC50 (EV-A71 Tainan/4643/98; [10]): 18.3 µM

Structure (SMILES): CN(C)CCNC(=O)c1cc(-c2ccc(F)cc2)nc2ccccc12 [drawing 185]
- EC50 (CVB3; [9]): 0.06 µM
- EC50 (EV-A71 US/AK/16-19516): 2.3 µM
- EC50 (EV-D68 US/MO/14-18947): 0.05 µM
- EC50 (EV-A71 Tainan/4643/98; [10]): 2.2 µM
- EC50 [5, 7]: 0.1 µM

Structure (SMILES): CNCCNC(=O)c1cc(-c2ccc(F)cc2)nc2ccccc12 [drawing 186]
- EC50 (CVB3; [9]): 0.2 µM
- EC50 (EV-A71 Tainan/4643/98; [10]): 3.1 µM
- EC50 [5, 8]: 0.2 µM

Structure (SMILES): NCCNC(=O)c1cc(-c2ccc(F)cc2)nc2ccccc12 [drawing 187]
- EC50 (CVB3; [9]): 0.4 µM
- EC50 (EV-A71 US/AK/16-19516): 14 µM
- EC50 (EV-D68 US/MO/14-18947): 0.3 µM
- EC50 (EV-A71 Tainan/4643/98; [10]): 9 µM
- EC50 [5, 7]: 0.4 µM

Structure (SMILES): CN(C)CCNC(=O)c1cc(-c2ccc(F)cc2F)nc2ccccc12 [drawing 188]
- EC50 (CVB3; [9]): 0.4 µM
- EC50 (EV-A71 US/AK/16-19516): > 10 µM
- EC50 (EV-A71 Tainan/4643/98; [10]): 7.9 µM

Structure (SMILES): CN(C)CCNC(=O)c1cc(-c2cccs2)nc2ccccc12 [drawing 189]
- EC50 (CVB3; [9]): 0.07 µM
- EC50 (EV-A71 US/AK/16-19516): > 10 µM
- EC50 (EV-A71 Tainan/4643/98; [10]): 2.9 µM
- EC50 [5, 8]: 0.04 µM

Structure (SMILES): CC(CN(C)C)NC(=O)c1cc(-c2cccs2)nc2ccccc12 (centres unmarked) [drawing 190]
- EC50 (CVB3; [9]): 0.4 µM
- EC50 (EV-A71 US/AK/16-19516): 8.8 µM
- EC50 (EV-A71 Tainan/4643/98; [10]): 7.9 µM

Structure (SMILES): CN1CCC(NC(=O)c2cc(-c3cccs3)nc3ccccc23)C1 (centres unmarked) [drawing 191]
- EC50 (CVB3; [9]): 0.2 µM
- EC50 (EV-A71 US/AK/16-19516): 8 µM
- EC50 (EV-A71 Tainan/4643/98; [10]): 6.3 µM

Structure (SMILES): CNCCNC(=O)c1cc(-c2cccs2)nc2ccccc12 [drawing 192]
- EC50 (CVB3; [9]): 0.3 µM
- EC50 (EV-A71 US/AK/16-19516): 11.5 µM
- EC50 (EV-D68 US/MO/14-18947): 0.2 µM
- EC50 (EV-A71 Tainan/4643/98; [10]): 8.4 µM
- EC50 [5, 7]: 0.3 µM

Structure (SMILES): NCCNC(=O)c1cc(-c2cccs2)nc2ccccc12 [drawing 193]
- EC50 (CVB3; [9]): 0.6 µM
- EC50 (EV-A71 US/AK/16-19516): > 30 µM
- EC50 (EV-A71 Tainan/4643/98; [10]): 38.3 µM

Structure (SMILES): CN(C)CCNC(=O)c1cc(-c2ccco2)nc2ccccc12 [drawing 194]
- EC50 (CVB3; [9]): 1.2 µM
- EC50 (EV-A71 US/AK/16-19516): 20.9 µM
- EC50 (EV-A71 Tainan/4643/98; [10]): 30.9 µM

Structure (SMILES): CCCCOc1cc(C(=O)NCCN(CC)CC)c2ccccc2n1 [drawing 195]
- CC50 at 3 days ([1]; Vero C1008 cells): 64.4 µM
- EC50 (CVB3; [9]): 1.3 µM
- EC50 (EV-A71 Tainan/4643/98; [10]): > 10 µM

Structure (SMILES): N=C(N)N [guanidine, reference compound]
- Tm shift (CVB3 2C protein; 1 mM, CVB3 2C 4.5 μM): 1.77 °C
